For assay [1], the target named is T1, Ima1p (Saccharomyces cerevisiae, UniProt P53051). As to the kind of experiment: Substrate specificity of purified isomaltase. Format: biochemical. Conditions: 100 mM substrate (pNPG 5 mM), citrate–potassium phosphate buffer, pH 7, 30 °C.
The target in another assay is Ima2p (Saccharomyces cerevisiae, UniProt Q08295). Description: Substrate specificity of purified isomaltase. Format: biochemical. Conditions: 100 mM substrate (pNPG 5 mM), citrate–potassium phosphate buffer, pH 7, 30 °C.
A further assay deals with Ima3p (Saccharomyces cerevisiae, UniProt P0CW40). As to the kind of experiment: Substrate specificity of purified isomaltase. In kind it is biochemical. Conditions: 100 mM substrate (pNPG 5 mM), citrate–potassium phosphate buffer, pH 7, 30 °C.
Assay [2] addresses T2, Ima5p (Saccharomyces cerevisiae, UniProt P40884).
T2 sequence (P40884 1-581): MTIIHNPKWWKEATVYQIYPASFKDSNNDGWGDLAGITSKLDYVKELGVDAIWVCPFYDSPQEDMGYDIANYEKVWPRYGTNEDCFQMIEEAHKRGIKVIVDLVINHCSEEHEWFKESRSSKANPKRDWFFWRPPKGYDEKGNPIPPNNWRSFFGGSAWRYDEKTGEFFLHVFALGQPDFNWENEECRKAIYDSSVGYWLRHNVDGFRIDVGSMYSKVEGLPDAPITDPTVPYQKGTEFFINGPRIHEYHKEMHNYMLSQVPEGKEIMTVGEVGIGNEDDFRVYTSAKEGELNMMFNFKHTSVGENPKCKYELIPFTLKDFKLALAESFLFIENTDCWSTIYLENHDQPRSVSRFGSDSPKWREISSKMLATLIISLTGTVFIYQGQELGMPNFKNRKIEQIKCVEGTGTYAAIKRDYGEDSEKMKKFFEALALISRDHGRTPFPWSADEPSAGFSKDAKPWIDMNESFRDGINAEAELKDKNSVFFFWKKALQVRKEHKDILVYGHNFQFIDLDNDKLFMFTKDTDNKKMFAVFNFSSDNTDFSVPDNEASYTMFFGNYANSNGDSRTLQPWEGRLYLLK
As to the kind of experiment: Substrate specificity of purified isomaltase. Conditions: 100 mM substrate (pNPG 5 mM), citrate–potassium phosphate buffer, pH 7, 30 °C. Format: biochemical.

In assay [3] the target is T1, Ima1p. As to the kind of experiment: Inhibition by maltose of isomaltose hydrolysis. Format: biochemical.
The target of assay [4] is T2, Ima5p. Description: Inhibition by maltose of isomaltose hydrolysis. In kind it is biochemical. Conditions: isomaltose up to 50 mM.
Assay [5] deals with the four isomaltases (Ima1p, Ima2p, Ima3p, Ima5p). Description: Activity of the isomaltases on substrates. Format: biochemical, Saccharomyces cerevisiae. Conditions: all Ima proteins.
In assay [6] the test system is the four isomaltases (Ima proteins). As to the kind of experiment: Effect of compounds on melting temperature of isomaltases. The arrangement: species or system Saccharomyces cerevisiae. Conditions: presence of maltose, results not shown.
Assay [7] concerns the target T1, Ima1p. Conditions: isomaltose 50–500 mM; cited from earlier work.

The values that follow come from PMC3953731 (FEBS Open Bio, 2014).

Read-outs that look alike come from different tables or passages of the source.

T1 sequence (P53051 whole entry): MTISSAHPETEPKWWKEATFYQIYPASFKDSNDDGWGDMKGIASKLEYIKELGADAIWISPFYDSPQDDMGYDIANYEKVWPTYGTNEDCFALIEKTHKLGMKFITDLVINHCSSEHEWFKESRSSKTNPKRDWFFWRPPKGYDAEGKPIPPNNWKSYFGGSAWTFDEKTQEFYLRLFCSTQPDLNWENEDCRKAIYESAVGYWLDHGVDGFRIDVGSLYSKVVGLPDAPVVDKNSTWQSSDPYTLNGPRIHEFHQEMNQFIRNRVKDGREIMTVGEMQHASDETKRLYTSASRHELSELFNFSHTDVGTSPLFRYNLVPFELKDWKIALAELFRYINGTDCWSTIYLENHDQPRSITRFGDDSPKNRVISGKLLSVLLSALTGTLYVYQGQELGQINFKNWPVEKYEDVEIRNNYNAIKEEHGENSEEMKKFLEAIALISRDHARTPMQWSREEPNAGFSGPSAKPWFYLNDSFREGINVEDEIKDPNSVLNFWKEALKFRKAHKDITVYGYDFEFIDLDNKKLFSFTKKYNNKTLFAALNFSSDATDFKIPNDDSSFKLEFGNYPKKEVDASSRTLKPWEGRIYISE
Chain of Ima2p (Q08295 whole entry): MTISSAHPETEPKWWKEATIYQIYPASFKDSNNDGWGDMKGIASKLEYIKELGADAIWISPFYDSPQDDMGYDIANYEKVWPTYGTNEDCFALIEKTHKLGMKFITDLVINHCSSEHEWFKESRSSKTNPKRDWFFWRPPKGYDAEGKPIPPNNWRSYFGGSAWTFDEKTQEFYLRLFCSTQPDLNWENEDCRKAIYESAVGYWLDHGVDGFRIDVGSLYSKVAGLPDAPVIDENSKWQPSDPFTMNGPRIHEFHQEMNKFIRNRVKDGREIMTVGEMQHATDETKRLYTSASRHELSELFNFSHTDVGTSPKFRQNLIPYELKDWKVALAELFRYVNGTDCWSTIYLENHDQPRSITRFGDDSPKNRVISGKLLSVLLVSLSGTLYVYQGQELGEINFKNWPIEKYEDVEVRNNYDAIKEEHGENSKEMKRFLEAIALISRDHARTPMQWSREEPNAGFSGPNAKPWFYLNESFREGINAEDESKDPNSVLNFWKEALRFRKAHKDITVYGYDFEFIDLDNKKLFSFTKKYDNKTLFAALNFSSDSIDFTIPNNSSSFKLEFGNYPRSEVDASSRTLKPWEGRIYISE
Chain of Ima3p (P0CW40 whole entry): as the sequence (Q08295 whole entry) above, with A54T, P240L, Q279R counted along it

Consider `OC[C@H]1O[C@H](O[C@H]2[C@H](O)[C@@H](O)[C@H](O)O[C@@H]2CO)[C@H](O)[C@@H](O)[C@@H]1O` [Maltose, O-α-D-Glucosyl-(1→4)-α-D-glucose], for which the Specific activities on Ima1p [1], at Ima2p, at Ima3p and at Ima5p [2] was 0 µmol/min/mg throughout. Further, the type of inhibition entry at Ima1p [3] (at high substrate concentration) is on record as “uncompetitive inhibition”; on Ima1p [3] (at low substrate concentration) it was “competitive inhibition”; on Ima5p [4], “mixed inhibition”; at Ima1p [7] it was “competitive inhibitor”. Further, the “activity on the substrate” value in [5] is “totally inactive”. Moreover, the “effect on melting temperature” value in assay [6] is reported as “did not affect the melting temperature”.
